{
  "source": "paper PMC8776995",
  "about": "(Frontiers in Chemistry, 2022)",
  "key": {"A549 cells": {"system": "A549 cells", "assay": "CCK-8 antiproliferation assay, A549", "details": "for Inhibitory efficacy: A549 cells"}, "H460 cells": {"system": "H460 cells", "assay": "Annexin V/PI flow cytometry for cell apoptosis, H460", "format": "cell-based, human", "details": "for Percentage of apoptosis, Average: average of three runs; for Q2+Q3 / Lymphocytes/Q2: FITC-A+ , PI-A+ Freq. of Parent / Lymphocytes/Q3: FITC-A+ , PI-A- Freq. of Parent / Percentage of apoptosis: single runs; for Q2+Q3: given as fraction; for Lymphocytes/Q2: FITC-A+ , PI-A+ Freq. of Parent / Lymphocytes/Q3: FITC-A+ , PI-A- Freq. of Parent / Percentage of apoptosis: time as in file name (24h, 48h or not given)", "protocol": "To establish whether the antiproliferative efficacy is associated with apoptosis, PC-9 and H460 cells were treated with compound e4 or e12 of various concentrations (4, 8 and 12 μM) for 48 h, and then assessed with flow cytometry.\nCell-apoptosis analysis was carried out by flow cytometry using the Annexin V/PI apoptosis kit according to the manufacturer’s manual. Briefly, PC-9 or H460 (3 × 10^4–5 × 10^4/well) cells were seeded in 12-well plates for 24 h, and then treated with 0.1% DMSO (as control) or various concentrations of compound e4 or e12 for 48 h, respectively. Cells were harvested, washed with PBS, and then incubated with 100ul of 1X Annexin V binding buffer containing 1 μl PI and 1 μl FITC Annexin V for 15 min at RT in the dark. 200 µl of 1X binding buffer were added to each tube for flow cytometry analysis (BD LSRFortessa™ Flow Cytometer). The percentages of apoptotic cells were analyzed using FlowJo soft."}, "[1]": {"system": "EGFR phosphorylation (Tyr1068) in H460 cells", "assay": "Western blot, p-EGFR/EGFR in H460", "details": "for p-EGFR/EGFR: band density ratio; for p-EGFR/EGFR relative to DMSO: ratio normalised to DMSO", "description": "We also performed western blot analysis to evaluate the impact of e4 and e12 on EGFR signaling in PC-9 and H460 cells.\nH460 cells were seeded in six-well plates with serum-free medium overnight, and then treated complete medium containing 0.1% DMSO, various concentrations (0.1, 1 and 10 μM) of either compound e4 or e12 for 2 h, respectively. […] Then the H460 cells were treated with complete medium containing EGF (10 ng/ml) for 5 min. Then the cells were harvested and washed with PBS, centrifuged, resuspended in 100–200 μl of RIPA lysis buffer containing Protease and Phosphatase Inhibitor Cocktail (1X), and then centrifuged for 5 min at 12,000 rpm at 4°C. The supernatant was used for protein analysis. […] Then the membrane was washed 5 min (X3) and incubated at 1:3,000 dilution of anti-rabbit secondary antibodies or 1:1,000 dilution of anti-mouse secondary antibodies for 1 h at RT. After washing with TBST 5 min (X3), protein bands were developed by chemiluminescence. The protein levels were quantified by the gray values of the bands in the resulting images by ImageJ, and the control group was used as the standard. […] The PC-9 cells were harvested and analyzed as above."}, "PC-9 cells": {"system": "PC-9 cells", "assay": "Hoechst 33342 staining for cell apoptosis", "format": "cell-based, human", "details": "PC-9, various concentrations, 48 h, vs 0.1% DMSO", "protocol": "To further verify the impact of compounds e4 and e12 on apoptosis of NSCLC cells, PC-9 cells were treated with either compound e4 or e12 at various concentrations for 48 h and then stained with dye Hoechst 33342.\nPC-9 cells were seeded in 96-well plates, then treated with 0.1% DMSO (as control) or various concentrations of compound e4 or e12 for 48 h. Culture medium from the cells was removed and replaced with medium containing dye Hoechst 33342. Cells were incubated at 37°C for 5–15 min, washed with PBS twice, and then observed and imaged under the Nikon Ti-U microscope."}, "[2]": {"system": "CCND1, CCNA2, CCNB1, CDK2, CDK6 RNA in PC-9 cells", "assay": "qPCR assay for cell cycle-related gene analysis", "format": "cell-based, human", "details": "for CCNB relative mRNA expression (2^-ddCt vs NC, normalised to beta-Actin) / CCND1 relative mRNA expression (2^-ddCt vs NC, normalised to beta-Actin) / CDK6 relative mRNA expression (2^-ddCt vs NC, normalised to beta-Actin): qPCR SYBR_GREEN, NC = 1; for RQ: endogenous control b-Actin, reference sample NC; for 2^ΔΔCт CCNA: Repeat 1-3, relative to NC = 1", "excerpt": "To better understand the mechanisms underlying cell cycle arrest induced by e4 and e12 in NSCLC cells, we assessed the expression levels of a few genes involved in cell cycle regulation, including cyclin D1 (CCND1), cyclin A2 (CCNA2), cyclin B1 (CCNB1), cyclin-dependent kinase 2 (CDK2), and cyclin-dependent kinase 6 (CDK6) in PC-9 by qPCR. […] CCNA2 is known to bind and activate CDK2 and thus promotes the transition through G1/S and G2/M. CCNB1 and CCND1 are essential to mitosis and G1/S transition respectively. While G2/M arrest weas not detected, the changes in these gene expression profiles interpret the G1/S arrests in PC-9 cells treated with e4 and e12. PC-9 cells exposed to the compounds for various periods should be examined further.\nTotal RNA of cells was extracted and cDNA was synthesized. The primers for the target products were designed as in Table 3."}},
  "note": "Where “and” joins values, the source holds several entries; their conditions need not be identical. Identical values can stand only once. Like-named read-outs stand apart in the source and are kept apart here.",
  "data": [
    {"smiles": "COCCOc1cc2ncnc(Nc3cccc(-c4cn(-c5ccc(C)cc5)nn4)c3)c2cc1OCCOC", "note": "[e12, [6,7-Bis-(2-methoxy-ethoxy)-quinazolin-4-yl]-[3-(1-p-tolyl-1H-[1,2,3]triazol-4-yl)-phenyl]-amine]", "values": [
      {"measurement": "Inhibitory efficacy", "setting": "A549 cells; 1uM, given as fraction, Repeat 1-3", "result": "0.1461 and 0.1139"},
      {"measurement": "Inhibitory efficacy", "setting": "A549 cells; 2uM, given as fraction, Repeat 1-3", "result": "0.3261 and 0.1967"},
      {"measurement": "Inhibitory efficacy", "setting": "A549 cells; 4uM, given as fraction, Repeat 1-3", "result": "0.4378 and 0.3806"},
      {"measurement": "Inhibitory efficacy", "setting": "A549 cells; 8uM, given as fraction, Repeat 1-3", "result": "0.5646 and 0.5114"},
      {"measurement": "Inhibitory efficacy", "setting": "A549 cells; 16uM, given as fraction, Repeat 1-3", "result": "0.7887 and 0.7821"},
      {"measurement": "IC50", "setting": "A549 cells; Homo sapiens, A549, 48 h, read-out: IC50 (μM) A549, CCK-8, 48 h, average ± SD of three independent experiments", "result": "< 10", "unit": "µM"},
      {"measurement": "inhibition at 1 µM", "setting": "A549 cells; Homo sapiens, A549, read-out: Inhibitory efficacy, A549 cells, 1uM, given as fraction, Repeat 1-3", "result": 9.61, "unit": "%"},
      {"measurement": "inhibition at 2 µM", "setting": "A549 cells; Homo sapiens, A549, read-out: Inhibitory efficacy, A549 cells, 2uM, given as fraction, Repeat 1-3", "result": 26.8, "unit": "%"},
      {"measurement": "inhibition at 4 µM", "setting": "A549 cells; Homo sapiens, A549, read-out: Inhibitory efficacy, A549 cells, 4uM, given as fraction, Repeat 1-3", "result": 37.9, "unit": "%"},
      {"measurement": "inhibition at 8 µM", "setting": "A549 cells; Homo sapiens, A549, read-out: Inhibitory efficacy, A549 cells, 8uM, given as fraction, Repeat 1-3", "result": 51.9, "unit": "%"},
      {"measurement": "inhibition at 16 µM", "setting": "A549 cells; Homo sapiens, A549, read-out: Inhibitory efficacy, A549 cells, 16uM, given as fraction, Repeat 1-3", "result": 78.5, "unit": "%"},
      {"measurement": "IC50", "setting": "A549 cells; read-out: IC50 (μM) A549, CCK-8, 48 h, average ± SD of three independent experiments", "result": "5.91 ± 0.73", "unit": "µM"},
      {"measurement": "Percentage of apoptosis, Average", "setting": "H460 cells; H460, 4uM", "result": 14.68, "unit": "%"},
      {"measurement": "Q2+Q3", "setting": "H460 cells; H460, 4uM", "result": 0.149},
      {"measurement": "Lymphocytes/Q2: FITC-A+ , PI-A+ Freq. of Parent", "setting": "H460 cells; H460, 4uM", "result": "8.07% and 10.30% and 7.57%"},
      {"measurement": "Lymphocytes/Q3: FITC-A+ , PI-A- Freq. of Parent", "setting": "H460 cells; H460, 4uM", "result": "6.83% and 3.75% and 7.52%"},
      {"measurement": "Percentage of apoptosis", "setting": "H460 cells; H460, 4uM", "result": "14.9% and 14.05% and 15.09%"},
      {"measurement": "Percentage of apoptosis, Average", "setting": "H460 cells; H460, 8uM", "result": 16.0567, "unit": "%"},
      {"measurement": "Q2+Q3", "setting": "H460 cells; H460, 8uM", "result": 0.1436},
      {"measurement": "Lymphocytes/Q2: FITC-A+ , PI-A+ Freq. of Parent", "setting": "H460 cells; H460, 8uM", "result": "7.09% and 10.30% and 10.90%"},
      {"measurement": "Lymphocytes/Q3: FITC-A+ , PI-A- Freq. of Parent", "setting": "H460 cells; H460, 8uM", "result": "7.27% and 6.59% and 6.02%"},
      {"measurement": "Percentage of apoptosis", "setting": "H460 cells; H460, 8uM", "result": "14.36% and 16.89% and 16.92%"},
      {"measurement": "Percentage of apoptosis, Average", "setting": "H460 cells; H460, 12uM", "result": 28.7833, "unit": "%"},
      {"measurement": "Q2+Q3", "setting": "H460 cells; H460, 12uM", "result": 0.213},
      {"measurement": "Lymphocytes/Q3: FITC-A+ , PI-A- Freq. of Parent", "setting": "H460 cells; H460, 12uM", "result": "10.9% and 9.22% and 9.03%"},
      {"measurement": "Percentage of apoptosis", "setting": "H460 cells; H460, 12uM", "result": "21.3% and 31.62% and 33.43%"},
      {"measurement": "cell apoptosis (flow cytometry)", "setting": "H460 cells; H460, 4, 8 and 12 μM, 48 h", "result": "significant cell apoptosis"},
      {"measurement": "p-EGFR/EGFR", "setting": "[1]; H460, 0.1 uM", "result": 0.7896},
      {"measurement": "p-EGFR/EGFR relative to DMSO", "setting": "[1]; H460, 0.1 uM", "result": 0.9489},
      {"measurement": "p-EGFR/EGFR", "setting": "[1]; H460, 1 uM", "result": 0.75},
      {"measurement": "p-EGFR/EGFR relative to DMSO", "setting": "[1]; H460, 1 uM", "result": 0.9013},
      {"measurement": "p-EGFR/EGFR", "setting": "[1]; H460, 10 uM", "result": 0.166},
      {"measurement": "p-EGFR/EGFR relative to DMSO", "setting": "[1]; H460, 10 uM", "result": 0.1995},
      {"measurement": "phosphorylation of EGFR (western blot)", "setting": "[1]; H460, especially at 10 μM", "result": "suppressed"},
      {"measurement": "apoptotic morphology, Hoechst 33342 staining", "setting": "PC-9 cells", "result": "exhibited features typical of apoptosis"},
      {"measurement": "CCNB relative mRNA expression (2^-ddCt vs NC, normalised to beta-Actin)", "setting": "[2]; 4uM", "result": 0.9828},
      {"measurement": "CCND1 relative mRNA expression (2^-ddCt vs NC, normalised to beta-Actin)", "setting": "[2]; 4uM", "result": 0.7886},
      {"measurement": "CDK6 relative mRNA expression (2^-ddCt vs NC, normalised to beta-Actin)", "setting": "[2]; 4uM", "result": 0.5928},
      {"measurement": "CCNB relative mRNA expression (2^-ddCt vs NC, normalised to beta-Actin)", "setting": "[2]; 8uM", "result": 0.8452},
      {"measurement": "CCND1 relative mRNA expression (2^-ddCt vs NC, normalised to beta-Actin)", "setting": "[2]; 8uM", "result": 0.7649},
      {"measurement": "CDK6 relative mRNA expression (2^-ddCt vs NC, normalised to beta-Actin)", "setting": "[2]; 8uM", "result": 0.8101},
      {"measurement": "CCNB relative mRNA expression (2^-ddCt vs NC, normalised to beta-Actin)", "setting": "[2]; 12uM", "result": 0.7825},
      {"measurement": "CCND1 relative mRNA expression (2^-ddCt vs NC, normalised to beta-Actin)", "setting": "[2]; 12uM", "result": 0.6173},
      {"measurement": "CDK6 relative mRNA expression (2^-ddCt vs NC, normalised to beta-Actin)", "setting": "[2]; 12uM", "result": 0.676},
      {"measurement": "RQ", "setting": "[2]; CCNA mRNA, 4uM", "result": 0.8394},
      {"measurement": "RQ", "setting": "[2]; CCNA mRNA, 8uM", "result": 0.6204},
      {"measurement": "RQ", "setting": "[2]; CCNA mRNA, 12uM", "result": 0.7362},
      {"measurement": "2^ΔΔCт CCNA", "setting": "[2]; 4uM", "result": "0.5435 and 0.6447 and 0.8394"},
      {"measurement": "2^ΔΔCт CCNA", "setting": "[2]; 8uM", "result": "0.582 and 0.5272 and 0.6204"},
      {"measurement": "2^ΔΔCт CCNA", "setting": "[2]; 12uM", "result": "0.5914 and 0.5472 and 0.7362"},
      {"measurement": "RQ", "setting": "[2]; CCNB mRNA, 4uM", "result": 1.03},
      {"measurement": "RQ", "setting": "[2]; CCNB mRNA, 8uM", "result": 0.8431},
      {"measurement": "RQ", "setting": "[2]; CCNB mRNA, 12uM", "result": 1.0421}
    ]}
  ]
}
